Numbers after ± are expanded uncertainties.
Assay: refractive index (Na D-line) (dimensionless)
Conditions: 298.15 K; 100 kPa; Liquid; Standard Abbe refractometry

Compound | refractive index
CC(=O)OCCC(C)C [3-methylbutyl ethanoate] | 1.39852 ± 0.00037
OCc1ccccc1 [benzenemethanol] | 1.53876 ± 0.00037
C[S+](C)[O-] [dimethyl sulfoxide] | 1.47713 ± 0.00033

From the NIST ThermoML archive (doi:10.1021/acs.jced.9b00396)
